Source: patent publication US8563516B2, “Foxp3 peptide vaccine” (OncoTherapy Science, Inc., priority 2007, dated 2013)

Key:
[1] = test system: peptide-pulsed A24LCL cells; assay: IFN-gamma ELISPOT on CTLs induced with HLA-A2402 restricted Foxp3 peptides; assay type: cell-based, human; details: FIG. 1A/1B
Text: (§1) Monocyte-derived dendritic cells (DCs) were used as antigen-presenting cells (APCs) to induce CTL responses against peptides presented on HLA. DCs were generated in vitro as described elsewhere (Horiguchi S. et al. Cancer Res. 59:2950-6). Specifically, peripheral blood mononuclear cells (PBMCs) isolated from normal volunteer (HLA-A*2402 and/or HLA-A*0201) with Ficoll-Plaque (Pharmacia) solution were separated by adherence to plastic tissue culture dish (Becton Dickinson) so as to enrich them for the monocyte fraction. The monocyte-enriched population was cultured in the presence of 1000 U/ml of GM-CSF (R&D System) and 1000 U/ml of IL-4 (R&D System) in AIM-V medium (Invitrogen) containing 2% heat-inactivated autologous serum (AS). After 7 days in the culture, the cytokine-generated DCs were pulsed with 20 mcg/ml of the synthesized peptides in the presence of 3 mcg/ml of beta2-microglobulin for 4 hrs at 20 degrees C. in AIM-V medium. These peptide-pulsed DCs were then inactivated with mitomycin C (MMC) (30 mcg/ml for 30 mins) and mixed at a 1:20 ratio with autologous CD8+ T cells, obtained by positive selection with CD8 Positive Isolation Kit (Dynal). These cultures were set up in 48-well plates (Corning); each well contained 1.5×10^4 peptide-pulsed DCs, 3×10^5 CD8+ T cells and 10 ng/ml of IL-7 (R&D System) in 0.5 ml of AIM-V/2% AS. Three days later, these cultures were supplemented with IL-2 (CHIRON) to a final concentration of 20 IU/ml. On day 7 and 14, the T cells were further restimulated with the peptide-pulsed autologous DCs. The DCs were prepared each time through the same procedure described above. CTL activity was tested against peptide-pulsed A24LCL cells or T2 cells after the 3rd round of peptide stimulation on day 21.
(§2) To examine the specific CTL activity, IFN-gamma ELISPOT assay and IFN-gamma ELISA were performed. Briefly, peptide-pulsed A24-LCL, T2 cell (1×10^4/well) or the cells endogenously expressing Foxp3 and HLA molecule was prepared as a stimulator cells. Cultured CTL lines in 48 wells were used as a responder cells. IFN-gamma ELISPOT assay and IFN-gamma ELISA were performed under manufacture procedure.
CTLs for the peptides derived from Foxp3 protein were generated according to the method described in the “Materials and Methods”, supra.

[2] = test system: peptide-pulsed A24LCL cells or T2 cells; assay: In vitro CTL induction by peptide-loaded dendritic cells (summary statements); assay type: cell-based, human; details: for specific CTL activity: against peptide pulsed target cells; for establishment of CTLs: in vitro stimulation of T-cells by DCs loaded with peptide
Text: Confirmation of CTL inducibility can be accomplished by inducing antigen-presenting cells carrying human MHC antigens (for example, B-lymphocytes, macrophages, and dendritic cells), or more specifically dendritic cells derived from human peripheral blood mononuclear leukocytes, and after stimulation with the peptides, mixing with CD8-positive cells, and then measuring the IFN-gamma produced and released by CTL against the target cells. As the reaction system, transgenic animals that have been produced to express a human HLA antigen (for example, those described in BenMohamed L, Krishnan R, Longmate J, Auge C, Low L, Primus J, Diamond D J, Hum Immunol 61(8): 764-79, 2000 August, Related Articles, Books, Linkout Induction of CTL response by a minimal epitope vaccine in HLA A*0201/DR1 transgenic mice: dependence on HLA class II restricted T(H) response) can be used. For example, the target cells can be radiolabeled with ^51Cr and such, and cytotoxic activity can be calculated from radioactivity released from the target cells. Alternatively, it can be examined by measuring IFN-gamma produced and released by CTL in the presence of antigen-presenting cells that carry immobilized peptides, and visualizing the inhibition zone on the media using anti-IFN-gamma monoclonal antibodies.
as §1, §2

peptide-pulsed T2 cells = assay: IFN-gamma ELISPOT on CTLs induced with HLA-A0201 restricted Foxp3 peptides; assay type: cell-based, human; details: FIG. 2A/2B/2C
Text: as §1, §2
Resulting CTLs showing detectable specific CTL activity were shown in FIG. 2A, FIG. 2B and FIG. 2C when performed by IFN-gamma ELISPOT assay.

HLA-A2 molecule = target: T1, HLA-A2 molecule (Homo sapiens, UniProt P04439, D140Y/D185E/D98H/E176V/E277Q/G131W/G231S/I119V/I121R/I166T/I218V/L300P/L318F/N151K/N90K/P208A/P217A/Q86G/Q94H/R138H/R169H/T345S); assay: CTL induction with Foxp3-9-252 substitutions restricted HLA-A*0201; assay type: cell-based; details: FIG. 7C; for IFN-gamma production compared with the control: positive wells
T1 construct: peripheral blood mononuclear cells (PBMCs) isolated from normal volunteer (HLA-A*2402 and/or HLA-A*0201); endogenous in cells; host or cells: monocyte-derived dendritic cells of HLA-A*0201 volunteers; T2 cells as stimulators in the read-out
Method: In FIG. 7C CTLs could be induced by stimulation with Foxp3-9-252 substitutions targeted HLA-A2 molecule. CTLs for all substituted peptides targeted HLA-A2 molecule were generated in the way as described in “Materials and Methods”. […] CTL line induced with Foxp3-9-252-9V peptide was used as responder cells. T2 cells incubated with Foxp3-9-252-9V (-solid circle-) or Foxp3-9-252-WT (-open circle-) peptide and without any peptide (-open square-) were used as stimulator cells in this assay (1×10^4 cells/well).
as §1, §2
On the other hand, the present inventers attempted the induction of CTLs using all substitutions restricted HLA-A*0201 including Foxp3-9-252-9V peptide. […] After CTL line induced by stimulation with Foxp3-9-252-9V was established by in vitro expansion, the CTL activity was determined by using stimulator cells pulsed with Foxp3-9-252-WT or Foxp3-9-252-9V peptide.

Question: What does the source list for “SYPLLANGV (peptide vaccine) [SEQ ID NO 9]”?
Answer: IFN-gamma production of CTLs stimulated with peptide, compared with the control [1]: potent IFN-gamma production; specific CTL activity [2]: significant and specific CTL activity; establishment of CTLs [2]: CTLs were successfully established

Question: For “KMALTKASSV (peptide vaccine) [SEQ ID NO 24]”, which “IFN-gamma production of CTLs stimulated with peptide, compared with the control” value (peptide-pulsed T2 cells) is on record?
Answer: potent IFN-gamma production

Question: And the “specific CTL activity” value [2]?
Answer: significant and specific CTL activity

Question: What about the “establishment of CTLs” value [2] of the same sequence?
Answer: CTLs were successfully established

Question: Which “IFN-gamma production of CTLs stimulated with peptide, compared with the control” value (peptide-pulsed T2 cells) does the source give for “LLQREMVQSL (peptide vaccine) [SEQ ID NO 28]” here?
Answer: potent IFN-gamma production

Question: And the “specific CTL activity” value [2]?
Answer: significant and specific CTL activity

Question: What about the “establishment of CTLs” value [2] of the same sequence?
Answer: CTLs were successfully established

Question: With “WFTRMFAFF (peptide vaccine) [SEQ ID NO 7]” as the sequence, how does the “IFN-gamma production of CTLs stimulated with peptide, compared with the control” value [1] read?
Answer: potent IFN-gamma production

Question: What about the “specific CTL activity” value [2] of the same sequence?
Answer: significant and specific CTL activity

Question: And the “establishment of CTLs” value [2]?
Answer: CTLs were successfully established

Question: What does the source list for “RPPFTYATL (peptide vaccine) [SEQ ID NO 8]”?
Answer: IFN-gamma production of CTLs stimulated with peptide, compared with the control [1]: potent IFN-gamma production; specific CTL activity [2]: significant and specific CTL activity; establishment of CTLs [2]: CTLs were successfully established

Question: Which results are given for “VFEEPEDFL (peptide vaccine) [SEQ ID NO 4]”?
Answer: IFN-gamma production of CTLs stimulated with peptide, compared with the control [1]: potent IFN-gamma production; specific CTL activity [2]: significant and specific CTL activity; establishment of CTLs [2]: CTLs were successfully established

Question: For “KFHNMRPPF (peptide vaccine) [SEQ ID NO 5]”, which “IFN-gamma production of CTLs stimulated with peptide, compared with the control” value [1] is on record?
Answer: potent IFN-gamma production

Question: And the “specific CTL activity” value [2]?
Answer: significant and specific CTL activity

Question: What about the “establishment of CTLs” value [2] of the same sequence?
Answer: CTLs were successfully established

Question: With “LVLEKEKLSA (peptide vaccine) [SEQ ID NO 37]” as the sequence, how does the “IFN-gamma production of CTLs stimulated with peptide, compared with the control” value (peptide-pulsed T2 cells) read?
Answer: potent IFN-gamma production

Question: What about the “specific CTL activity” value [2] of the same sequence?
Answer: significant and specific CTL activity

Question: What about the “establishment of CTLs” value [2] of the same sequence?
Answer: CTLs were successfully established

Question: “VMVAPSGARL (peptide vaccine) [SEQ ID NO 30]” was tested. Which “IFN-gamma production of CTLs stimulated with peptide, compared with the control” value (peptide-pulsed T2 cells) did it give?
Answer: potent IFN-gamma production

Question: What about the “specific CTL activity” value [2] of the same sequence?
Answer: significant and specific CTL activity

Question: And the “establishment of CTLs” value [2]?
Answer: CTLs were successfully established

Question: Which results are given for “QLQLPTLPL (peptide vaccine) [SEQ ID NO 18]”?
Answer: IFN-gamma production of CTLs stimulated with peptide, compared with the control (peptide-pulsed T2 cells): potent IFN-gamma production; specific CTL activity [2]: significant and specific CTL activity; establishment of CTLs [2]: CTLs were successfully established

Question: “LQLPTLPLV (peptide vaccine) [SEQ ID NO 16]” was tested. Which “IFN-gamma production of CTLs stimulated with peptide, compared with the control” value (peptide-pulsed T2 cells) did it give?
Answer: potent IFN-gamma production

Question: And the “specific CTL activity” value [2]?
Answer: significant and specific CTL activity

Question: And the “establishment of CTLs” value [2]?
Answer: CTLs were successfully established

Question: With “RTPVLQVHPL (peptide vaccine) [SEQ ID NO 12]” as the sequence, how does the “IFN-gamma production of CTLs stimulated with peptide, compared with the control” value [1] read?
Answer: potent IFN-gamma production

Question: What about the “specific CTL activity” value [2] of the same sequence?
Answer: significant and specific CTL activity

Question: What about the “establishment of CTLs” value [2] of the same sequence?
Answer: CTLs were successfully established

Question: For “KLMAMQAHL (peptide vaccine) [SEQ ID NO 97]”, which “CTL induction by stimulation with substituted peptide” value (HLA-A2 molecule) is on record?
Answer: CTLs were induced

Question: And the “IFN-gamma production compared with the control” value (HLA-A2 molecule; listed as Foxp3-9-252-3M)?
Answer: showed IFN-gamma production

Question: What about the “IFN-gamma production compared with the control” value (HLA-A2 molecule; listed as Foxp3-A02-9-252-3M) of the same sequence?
Answer: peptide-dependent IFN-gamma production

Question: For “SLFAVRRHL (peptide vaccine) [SEQ ID NO 19]”, which “IFN-gamma production of CTLs stimulated with peptide, compared with the control” value (peptide-pulsed T2 cells) is on record?
Answer: potent IFN-gamma production

Question: And the “specific CTL activity” value [2]?
Answer: significant and specific CTL activity

Question: What about the “establishment of CTLs” value [2] of the same sequence?
Answer: CTLs were successfully established

Question: With “GINVASLEWV (peptide vaccine) [SEQ ID NO 29]” as the sequence, how does the “IFN-gamma production of CTLs stimulated with peptide, compared with the control” value (peptide-pulsed T2 cells) read?
Answer: potent IFN-gamma production

Question: What about the “specific CTL activity” value [2] of the same sequence?
Answer: significant and specific CTL activity

Question: And the “establishment of CTLs” value [2]?
Answer: CTLs were successfully established

Question: What does the source list for “KLLAMQAHL (peptide vaccine) [SEQ ID NO 98]”?
Answer: CTL induction by stimulation with substituted peptide (HLA-A2 molecule): CTLs were induced; IFN-gamma production compared with the control (HLA-A2 molecule; listed as Foxp3-9-252-3L): showed IFN-gamma production; IFN-gamma production compared with the control (HLA-A2 molecule; listed as Foxp3-A02-9-252-3L): peptide-dependent IFN-gamma production

Question: Which “IFN-gamma production of CTLs stimulated with peptide, compared with the control” value (peptide-pulsed T2 cells) does the source give for “TLNEIYHWFT (peptide vaccine) [SEQ ID NO 22]” here?
Answer: potent IFN-gamma production

Question: And the “specific CTL activity” value [2]?
Answer: significant and specific CTL activity

Question: And the “establishment of CTLs” value [2]?
Answer: CTLs were successfully established

Question: Which results are given for “IYHWFTRMF (peptide vaccine) [SEQ ID NO 3]”?
Answer: IFN-gamma production of CTLs stimulated with peptide, compared with the control [1]: potent IFN-gamma production; specific CTL activity [2]: significant and specific CTL activity; establishment of CTLs [2]: CTLs were successfully established
